Measurements published in patent publication EP0830890A1, “Surfactants for use in liquid/supercritical CO2” (AIR PRODUCTS AND CHEMICALS, INC., priority 1996, dated 1998).

Experiment: Solubility in CO2 by cloud point determination in a variable volume view cell
Assay type: physicochemical
Design: Pressure Describing Cloud Point Determinations For Surfactant/CO2 Concentrations / Pressure Describing Cloud Point Determinations For Surfactant/CO2Concentrations: unit not given here
Experimental: In the following examples, mixtures of acetylenic alcohols or diols and CO2 were prepared by adding the acetylenic alcohol or diol to a stainless steel variable volume view cell equiped with suitable relief devices, high pressure valves CO2 inlet and outlet and a sapphire window at one end. A high pressure syringe pump (High Pressure Products, HIP pump) was filled with liquid CO2 and used to quantitiatively add CO2 to the pressure vessel. The pressure vessel contained a magnetic stirrer and was stirred via a magnetic couple to a magnet located below the vessel.
A weighed amount of surfactant (0.5-10 weight %) was placed inside the cell chamber in front of the piston. The cell window was attached and 10 cc ? s of CO2, was added to the cell. The surfactant was mixed in the CO2 using a magnetic stirring bar. The cell was mounted in horizontally and then immersed in a water bath. After allowing the high pressure cell to attain thermal equilibrium the pressure within the cell was varied using a floating piston. The pressure was changed to monitor the cloud point as being indicative of insolubility. The operator viewed the floating piston through the sapphire window using a suitable optic device, the onset of insolubility was taken when the translucent solution changed to an orange/brown color due to the Tindall light scattering of the insoluble droplets. The onset of insolubility was checked several times by varying the pressure using the high pressure syringe pump.
A water bath was used to vary the temperature for each concentration. On completing the solubility studies at one concentration and one temperature series, a calibrated injector loop attached to the high pressure cell was filled with the surfactant via a syringe. Utilizing a six way valve to help inject this fixed amount of surfactant, the surfactant concentration within the high pressure cell was increased by a fixed increment. The solubility studies for this new CO2/surfactant concentration were measured at various temperatures in a similar manner to that previously described.

Pressure Describing Cloud Point Determinations For Surfactant/CO2 Concentrations (Surfactant Concn. in CO2 0.50 wt%, 35°C): 1480 | Pressure Describing Cloud Point Determinations For Surfactant/CO2 Concentrations (Surfactant Concn. in CO2 0.50 wt%, 45°C): 1800 | Pressure Describing Cloud Point Determinations For Surfactant/CO2 Concentrations (Surfactant Concn. in CO2 0.50 wt%, 55°C): 2200 | Pressure Describing Cloud Point Determinations For Surfactant/CO2 Concentrations (Surfactant Concn. in CO2 1.50 wt%, 35°C): 1530 | Pressure Describing Cloud Point Determinations For Surfactant/CO2 Concentrations (Surfactant Concn. in CO2 1.50 wt%, 45°C): 1900 | Pressure Describing Cloud Point Determinations For Surfactant/CO2 Concentrations (Surfactant Concn. in CO2 1.50 wt%, 55°C): 2260 | Pressure Describing Cloud Point Determinations For Surfactant/CO2 Concentrations (Surfactant Concn. in CO2 2.50 wt%, 35°C): 1500 | Pressure Describing Cloud Point Determinations For Surfactant/CO2 Concentrations (Surfactant Concn. in CO2 2.50 wt%, 45°C): 1860 | Pressure Describing Cloud Point Determinations For Surfactant/CO2 Concentrations (Surfactant Concn. in CO2 2.50 wt%, 55°C): 2210 | Pressure Describing Cloud Point Determinations For Surfactant/CO2 Concentrations (Surfactant Concn. in CO2 5.00 wt%, 35°C): 1380 | Pressure Describing Cloud Point Determinations For Surfactant/CO2 Concentrations (Surfactant Concn. in CO2 5.00 wt%, 45°C): 1770 | Pressure Describing Cloud Point Determinations For Surfactant/CO2 Concentrations (Surfactant Concn. in CO2 5.00 wt%, 55°C): 2120 | Pressure Describing Cloud Point Determinations For Surfactant/CO2 Concentrations (Surfactant Concn. in CO2 7.60 wt%, 35°C): 1280 | Pressure Describing Cloud Point Determinations For Surfactant/CO2 Concentrations (Surfactant Concn. in CO2 7.60 wt%, 45°C): 1680 | Pressure Describing Cloud Point Determinations For Surfactant/CO2 Concentrations (Surfactant Concn. in CO2 7.60 wt%, 55°C): 2030 | Pressure Describing Cloud Point Determinations For Surfactant/CO2 Concentrations (Surfactant Concn. in CO2 10.20 wt%, 35°C): 1200 | Pressure Describing Cloud Point Determinations For Surfactant/CO2 Concentrations (Surfactant Concn. in CO2 10.20 wt%, 45°C): 1590 | Pressure Describing Cloud Point Determinations For Surfactant/CO2 Concentrations (Surfactant Concn. in CO2 10.20 wt%, 55°C): 1950 | solubility levels by weight to CO2 (in CO2): 10.2 % by weight
Structure (SMILES): C#CC(C)(O)CC(C)C (stereo not shown) [3,5-dimethyl-1-hexyn-3-ol]
